# Tested on: not given
# Test: not given
# Conditions: phase II clinical trial, allergic rhinitis; cited from earlier work
row,Compound,efficacy versus placebo
1,Oc1cccc(Nc2ncc(F)c(Nc3cccc(O)c3)n2)c1 [Example R112],lack of efficacy versus placebo

# Target: T1, recombinant human GST-SYK (Homo sapiens, UniProt P43405)
# T1 construct: purchased Carna Biosciences 08-176
# Test: Homogeneous Time-Resolved Fluorescence (HTRF) assay for the recombinant human Syk enzyme
# Format: biochemical
# Conditions: recombinant human GST-SYK 5 pM, ATP 25 μM, read-out: rhSYK Activity (IC50)
# Description: Homogeneous Time-Resolved Fluorescence (HTRF) Assay for the Recombinant Human Syk Enzyme
# A recombinant GST-hSYK fusion protein was used to measure potency of compounds to inhibit human Syk activity. […] Final volume of the reaction was 10 μL. Phosphorylation of the peptide was allowed to proceed for 45′ at room temperature. To quench the reaction and detect the phosphorylated product, 2 nM of a Europium-anti-phosphotyrosine antibody (Perkin Elmer #AD0161) and 70 nM SA-APC (Perkin-Elmer #CR130-100) were added together in 15 mM Tris pH 7.5, 40 mM EDTA, 0.01% tween 20. Final volume of the quenching solution was 10 μL.
# The resulting HTRF signal was measured after 30 minutes on an EnVision (Perkin-Elmer) reader using a time-resolved fluorescence protocol.
row,IC50 [nM],Compound
1,10.4,"OC1(c2ncc(-c3cc(Nc4nccc(C(F)(F)F)n4)cc4[nH]ccc34)s2)CCC1 [Example 1.2, 1-[5-(6-{[4-(trifluoromethyl)pyrimidin-2-yl]amino}-1H-indol-4-yl)-1,3-thiazol-2-yl]cyclobutanol]"
2,0.3,"CC1(C)Oc2c(cc(Nc3nccc(-c4c[nH]nn4)n3)cc2-c2cnc([C@]3(O)CC[C@@H](C(=O)O)CC3)s2)NC1=O [Example 2.1, (cis)-4-(5-(6-((4-(1H-1,2,3-Triazol-4-yl)pyrimidin-2-yl)amino)-2,2-dimethyl-3-oxo-3,4-dihydro-2H-benzo[b][1,4]oxazin-8-yl)thiazol-2-yl)-4-hydroxycyclohexanecarboxylic acid]"
3,0.5,O=C(O)[C@H]1CC[C@](O)(c2ncc(-c3n[nH]c4ccc(Nc5nccc(C(F)(F)F)n5)cc34)s2)CC1 [Example 1.11]
4,0.5,"O=C(O)[C@H]1CC[C@](O)(c2ncc(-c3c[nH]c4ccc(Nc5nccc(C(F)F)n5)cc34)s2)CC1 [Example 1.12, cis 4-(5-(5-((4-(difluoromethyl)pyrimidin-2-yl)amino)-1H-indol-3-yl)thiazol-2-yl)-4-hydroxy-cyclohexanecarboxylic acid]"
5,63.2,"CC1(C)C[C@@](O)(c2ncc(-c3ccnc4cc(Nc5nccc(C(F)(F)F)n5)ccc34)s2)CC[C@@H]1C(=O)O (single isomer, unassigned) [Example 1.5, (1S,4R or 1R,4S)-4-hydroxy-2,2-dimethyl-4-(5-(7-((4-(trifluoromethyl)pyrimidin-2-yl)amino)quinolin-4-yl)thiazol-2-yl)cyclohexanecarboxylic acid]"
6,39.9,"CC(O)(c1ncc(-c2c[nH]c3cc(Nc4nccc(C(F)(F)F)n4)ccc23)s1)[C@H]1CC[C@H](C(=O)O)CC1 (single isomer, unassigned) [Example 1.9, (trans)-4-((R or S)-1-hydroxy-1-(5-(6-((4-(trifluoromethyl)pyrimidin-2-yl)amino)-1H-indol-3-yl)thiazol-2-yl)ethyl) cyclohexanecarboxylic acid]"
7,0.5,"CC(O)(c1ncc(-c2cc(Nc3nccc(C(F)(F)F)n3)cc3[nH]ccc23)s1)[C@H]1CC[C@H](C(=O)O)CC1 (single isomer, unassigned) [Example 1.1, (trans)-4-((R or 5)-1-hydroxy-1-(5-(6-((4-(trifluoromethyl)pyrimidin-2-yl)amino)-1H-indol-4-yl)thiazol-2-yl)ethyl)cyclohexanecarboxylic acid]"
8,49,"CC1(C)C[C@@](O)(c2ncc(-c3c[nH]c4cc(Nc5nccc(C(F)(F)F)n5)ccc34)s2)CC[C@@H]1C(=O)O (single isomer, unassigned) [Example 1.7, (1S,4R or 1R,4S)-4-hydroxy-2,2-dimethyl-4-(5-(6-((4-(trifluoromethyl)pyrimidin-2-yl)amino)-1H-indol-3-yl)thiazol-2-yl)cyclohexanecarboxylic acid]"
9,0.366,"CC(C)Oc1ccnc(Nc2cc3c(c(-c4cnc([C@]5(O)CC[C@@H](C(=O)O)CC5)s4)c2)OC(C)(C)C(=O)N3)n1 [Example 2.7, cis-4-[5-(2,2-dimethyl-6-{[4-(1-methylethoxy)pyrimidin-2-yl]amino}-3-oxo-3,4-dihydro-2H-1,4-benzoxazin-8-yl)-1,3-thiazol-2-yl]-4-hydroxy-cyclohexanecarboxylic acid]"
10,61.6,"CC(O)(c1ncc(-c2ccnc3cc(Nc4nccc(C(F)(F)F)n4)ccc23)s1)[C@H]1CC[C@H](C(=O)O)CC1 (single isomer, unassigned) [Example 1.6]"
11,0.5,O=C(O)[C@H]1CC[C@](O)(c2ncc(-c3c[nH]c4ccc(Nc5nccc(C(F)(F)F)n5)cc34)s2)CC1 [Example 1.8]
12,0.5,"CC(O)(c1ncc(-c2cc(Nc3nccc(C(F)(F)F)n3)cc3[nH]cnc23)s1)[C@H]1CC[C@H](C(=O)O)CC1 (single isomer, unassigned) [Example 2.12, (trans)-4-((R or S)-1-hydroxy-1-(5-(6-((4-(trifluoromethyl)pyrimidin-2-yl)amino)-1H-benzo[d]imidazol-4-yl)thiazol-2-yl)ethyl)cyclohexanecarboxylic acid]"
13,0.06,"CC1(C)C[C@@](O)(c2ncc(-c3cc(Nc4nccc(C(F)(F)F)n4)cc4[nH]ccc34)s2)CC[C@@H]1C(=O)O (single isomer, unassigned) [Example 1.3, (1S,4R or 1R,4S)-4-hydroxy-2,2-dimethyl-4-[5-(6-{[4-(trifluoromethyl)pyrimidin-2-yl]amino}-1H-indol-4-yl)-1,3-thiazol-2-yl]cyclohexane-carboxylic acid]"
14,13.2,"CC1(C)Oc2c(cc(Nc3nccc(C(F)(F)F)n3)cc2-c2cnc(C3(O)CCC3)s2)NC1=O [Example 2.2, 8-[2-(1-hydroxycyclobutyl)-1,3-thiazol-5-yl]-2,2-dimethyl-6-{[4-(trifluoromethyl)pyrimidin-2-yl]amino}-2H-1,4-benzoxazin-3(4H)-one]"
15,7.1,"CCOC(=O)[C@H]1CC[C@](O)(c2ncc(-c3cc(Nc4nccc(OC(C)C)n4)cc4c3OC(C)(C)C(=O)N4)s2)CC1 [Example 2.6, ethyl cis-4-[5-(2,2-dimethyl-6-{[4-(1-methylethoxy)pyrimidin-2-yl]amino}-3-oxo-3,4-dihydro-2H-1,4-benzoxazin-8-yl)-1,3-thiazol-2-yl]-4-hydroxy-cyclohexanecarboxylate]"
16,0.552,"CC1(C)C[C@@](O)(c2ncc(-c3cc(Nc4nccc(C(F)(F)F)n4)cc4cn[nH]c34)s2)CC[C@@H]1C(=O)O (single isomer, unassigned) [Example 2.8]"
17,0.114,"CC(O)(c1ncc(-c2cc(Nc3nccc(C(F)(F)F)n3)cc3cn[nH]c23)s1)[C@H]1CC[C@H](C(=O)O)CC1 (single isomer, unassigned) [Example 2.10, (trans)-4-((R or S)-1-hydroxy-1-[5-(5-{[4-(trifluoromethyl)pyrimidin-2-yl]amino}-1H-indazol-7-yl)-1,3-thiazol-2-yl]ethyl}cyclohexanecarboxylic acid]"
18,10.1,"O=c1[nH]c2cc(Nc3nccc(C(F)(F)F)n3)cc(-c3cnc(C4(O)CCC4)s3)c2[nH]1 [Example 2.4, 4-[2-(1-hydroxycyclobutyl)-1,3-thiazol-5-yl]-6-{[4-(trifluoromethyl)pyrimidin-2-yl]amino}-1,3-dihydro-2H-benzimidazol-2-one]"
19,35.8,"CC1(C)Oc2c(cc(Nc3nccc(C(F)(F)F)n3)cc2-c2cnc(C(C)(O)C(F)(F)F)s2)NC1=O (stereo not shown) [Example 2.5, 2,2-dimethyl-8-[2-(2,2,2-trifluoro-1-hydroxy-1-methylethyl)-1,3-thiazol-5-yl]-6-{[4-(trifluoromethyl)pyrimidin-2-yl]amino}-2H-1,4-benzoxazin-3(4H)-one]"
20,0.5,"C[C@](O)(c1ncc(-c2cc(Nc3nccc(C(F)(F)F)n3)cc3[nH]ncc23)s1)C1CCC(C(=O)O)CC1 (single isomer, unassigned) [Example 2.11, (trans)-4-((R or S)-(1-hydroxy-1-(5-(6-((4-(trifluoromethyl)pyrimidin-2-yl)amino)-1H-indazol-4-yl)thiazol-2-yl)ethyl)cyclohexanecarboxylic acid]"
21,0.477,"Cn1ccc2c(-c3cnc([C@@]4(O)CC[C@H](C(=O)O)C(C)(C)C4)s3)cc(Nc3nccc(C(F)(F)F)n3)cc21 (single isomer, unassigned) [Example 1.4, (1S,4R or 1R,4S)-4-hydroxy-2,2-dimethyl-4-[5-(1-methyl-6-{[4-(trifluoromethyl)pyrimidin-2-yl]amino}-1H-indol-4-yl)-1,3-thiazol-2-yl]cyclohexane-carboxylic acid]"
22,0.866,"CC1(C)C[C@@H](C(C)(O)c2ncc(-c3cc(Nc4nccc(C(F)(F)F)n4)cc4cn[nH]c34)s2)CC[C@@H]1C(=O)O (single isomer, unassigned) [Example 2.9, (trans)-4-((R or S)-1-hydroxy-1-[5-(5-{[4-(trifluoromethyl)pyrimidin-2-yl]amino}-1H-indazol-7-yl)-1,3-thiazol-2-yl]ethyl}-2,2-dimethylcyclohexanecarboxylic acid]"

# Tested on: PGD2
# Test: not given
# Conditions: dosed intranasally, phase I/II study, allergic rhinitis; cited from earlier work
Compound,clinical safety,decrease in PGD2
Oc1cccc(Nc2ncc(F)c(Nc3cccc(O)c3)n2)c1 [Example R112],safe across a range of indicators,statistically significant decrease
